Reference: patent US8598154B2 (Corcept Therapeutics, Inc., priority 2010, dated 2013)

Experiments:
[1] = target: T1, Human Recombinant Glucocorticoid Receptor (Homo sapiens, UniProt P04150); assay: Glucocorticoid receptor binding displacement assay with 3H-dexamethasone; details: displacement of 2.5 nM 3H-dexamethasone; Ki from IC50 by Cheng-Prusoff; read-out: GR Binding Ki
T1 construct: This GR was a full-length steroid hormone receptor likely to be associated with heat-shock and other endogenous proteins; host or cells: baculovirus-infected insect cells
T1 sequence (P04150 1-777): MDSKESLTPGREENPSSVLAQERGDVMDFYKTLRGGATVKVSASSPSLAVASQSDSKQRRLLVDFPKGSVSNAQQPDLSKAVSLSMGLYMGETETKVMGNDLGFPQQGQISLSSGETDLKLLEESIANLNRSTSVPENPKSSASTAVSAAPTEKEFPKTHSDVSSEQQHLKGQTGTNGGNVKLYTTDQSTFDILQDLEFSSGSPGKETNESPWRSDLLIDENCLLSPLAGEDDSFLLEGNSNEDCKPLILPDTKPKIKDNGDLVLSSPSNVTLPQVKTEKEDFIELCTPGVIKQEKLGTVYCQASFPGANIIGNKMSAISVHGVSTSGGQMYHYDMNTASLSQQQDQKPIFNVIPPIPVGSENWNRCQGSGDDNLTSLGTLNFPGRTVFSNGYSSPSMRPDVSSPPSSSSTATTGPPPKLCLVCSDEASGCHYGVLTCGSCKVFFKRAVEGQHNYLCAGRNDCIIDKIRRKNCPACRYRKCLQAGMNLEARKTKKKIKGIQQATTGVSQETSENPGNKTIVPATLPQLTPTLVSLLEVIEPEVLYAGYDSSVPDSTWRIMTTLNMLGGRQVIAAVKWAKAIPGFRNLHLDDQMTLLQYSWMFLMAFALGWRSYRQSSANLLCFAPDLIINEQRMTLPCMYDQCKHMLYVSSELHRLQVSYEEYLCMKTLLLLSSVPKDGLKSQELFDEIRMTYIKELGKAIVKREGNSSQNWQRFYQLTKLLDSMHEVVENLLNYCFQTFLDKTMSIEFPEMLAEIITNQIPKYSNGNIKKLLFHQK

[2] = target: T2, glucocorticoid receptors (GR) in SW1353/MMTV-5 cells (Homo sapiens, UniProt P04150); assay: GR functional assay using SW1353/MMTV-5 cells (MMTV-luciferase reporter); assay type: cell-based
T2 construct: contains endogenous glucocorticoid receptors; endogenous in cells; host or cells: SW1353/MMTV-5 (human chondrosarcoma, stably transfected with the pMAMneo-Luc reporter only)
T2 sequence (P04150 1-777): T1 sequence (P04150 1-777)
In short: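 Human chondrosarcoma line stably carrying firefly luciferase under an MMTV LTR glucocorticoid-responsive element, with endogenous GR. Cells were plated in 96-well plates and held 24 hrs in geneticin-free medium without CO2.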

Row | SMILES | Ki [1] | Ki [2]
1 | O=C(OCC1CC1)[C@]12Cc3cnn(-c4ccc(F)cc4)c3C=C1CCN(S(=O)(=O)c1ccc(N3CCOCC3)nc1)C2 [Example 51, (R)-1-(4-Fluorophenyl)-6-(6-morpholin-4-yl-pyridine-3-sulfonyl]-1,4,5,6,7,8-hexahydro-1,2,6-triaza-cyclopenta[b]naphthalene-4a-carboxylic acid cyclopropylmethyl ester] | 0.5 to 1 nM | < 10 nM
2 | COC[C@]12Cc3cnn(-c4ccc(F)cc4)c3C=C1CCN(S(=O)(=O)c1cncc(N3CC(O)C3)c1)C2 [Example 36, 1-{5-[(R)-1-(4-Fluorophenyl)-4a-methoxymethyl-1,4,4a,5,6,7,8-hexahydro-1,2,6-triaza-cyclopenta[b]naphthalene-6-sulfonyl]-pyridin-3-yl}-azetidin-3-ol] | 0.5 to 1 nM | > 50 nM
3 | O=S(=O)(c1ccc(N2CC[C@@H](O)C2)nc1)N1CCC2=Cc3c(cnn3-c3ccc(F)cc3)C[C@]2(COCC2CC2)C1 [Example 28, (R)-1-{5-[(R)-4a-Cyclopropylmethoxymethyl-1-(4-fluorophenyl)-1,4,4a,5,6,7,8-hexahydro-1,2,6-triaza-cyclopenta[b]naphthalene-6-sulfonyl]pyridine-2-yl}-pyrrolidine-3-ol] | < 0.5 nM | 10 to 50 nM
4 | O=S(=O)(c1ccc(N2CC[C@@H](F)C2)nc1)N1CCC2=Cc3c(cnn3-c3ccc(F)cc3)C[C@]2(CN2CC[C@H](O)C2)C1 [Example 47, (S)-1-{(S)-1-(4-Fluorophenyl)-6-[6-((R)-3-fluoro-pyrrolidin-1-yl)-pyridine-3-sulfonyl]-1,4,5,6,7,8-hexahydro-1,2,6-triaza-cyclopenta[b]naphthalene-4a-ylmethyl}-pyrrolidin-3-ol] | > 1 nM | > 50 nM
5 | Cc1cc(COC[C@]23Cc4cnn(-c5ccc(F)cc5)c4C=C2CCN(S(=O)(=O)c2ccc(N4CC[C@@H](F)C4)nc2)C3)no1 [Example 35, (R)-1-(4-Fluorophenyl)-6-[6-((R)-3-fluoropyrrolidin-1-yl)-pyridine-3-sulfonyl]-4a-(5-methyl-isoxazol-3-ylmethoxymethyl)-4,4a,5,6,7,8-hexahydro-1H-1,2,6-triaza-cyclopenta[b]naphthalene] | > 1 nM | 10 to 50 nM
6 | CCOC[C@]12Cc3cnn(-c4ccc(F)cc4)c3C=C1CCN(S(=O)(=O)c1ccc(N3CCOCC3)nc1)C2 [Example 1, (R)-4a-Ethoxymethyl-1-(4-fluorophenyl)-6-[[6-(4-morpholinyl)-3-pyridinyl]sulfonyl]-1,4,7,8-tetrahydro-1,2,6-triazacyclopenta[b]naphthalene] | < 0.5 nM | < 10 nM
7 | O=C(OCC1CC(O)C1)[C@]12Cc3cnn(-c4ccc(F)cc4)c3C=C1CCN(S(=O)(=O)c1ccc(N3CCOCC3)nc1)C2 (stereo partly drawn) [Example 53, (R)-1-(4-Fluorophenyl)-6-(6-morpholin-4-yl-pyridine-3-sulfonyl]-1,4,5,6,7,8-hexahydro-1,2,6-triaza-cyclopenta[b]naphthalene-4a-carboxylic acid 3-hydroxycyclobutylmethyl ester] | > 1 nM | 10 to 50 nM
8 | CCOC[C@]12Cc3cnn(-c4ccc(F)cc4)c3C=C1CCN(S(=O)(=O)c1ccc(N3CCCC3)nc1)C2 [Example 4, (R)-4a-Ethoxymethyl-1-(4-fluorophenyl)-6-[[6-(1-pyrrolidinyl)-3-pyridinyl]sulfonyl]-1,4,7,8-tetrahydro-1,2,6-triazacyclopenta[b]naphthalene] | > 1 nM | 10 to 50 nM
9 | COC[C@]12Cc3cnn(-c4ccc(F)cc4)c3C=C1CCN(S(=O)(=O)c1ccnc(N3CCCC3)c1)C2 [Example 42, (R)-1-(4-Fluorophenyl)-4a-methoxymethyl-6-(2-pyrrolidin-1-yl-pyridine-4-sulfonyl)-4,4a,5,6,7,8-hexahydro-1H-1,2,6-triaza-cyclopenta[b]naphthalene] | > 1 nM | < 10 nM
10 | O=S(=O)(c1ccc(N2CC[C@H](O)C2)nc1)N1CCC2=Cc3c(cnn3-c3ccc(F)cc3)C[C@]2(COCC2CC2)C1 [Example 29, (S)-1-{5-[(R)-4a-Cyclopropylmethoxymethyl-1-(4-fluorophenyl)-1,4,4a,5,6,7,8-hexahydro-1,2,6-triaza-cyclopenta[b]naphthalene-6-sulfonyl]pyridine-2-yl}-pyrrolidine-3-ol] | 0.5 to 1 nM | 10 to 50 nM
11 | O=S(=O)(c1ccc(N2CC(O)C2)nc1)N1CCC2=Cc3c(cnn3-c3ccc(F)cc3)C[C@]2(COCC2CC2)C1 [Example 31, 1-{5-[(R)-4a-Cyclopropylmethoxymethyl-1-(4-fluorophenyl)-1,4,4a,5,6,7,8-hexahydro-1,2,6-triaza-cyclopenta[b]naphthalene-6-sulfonyl]-pyridin-2-yl}-azetidin-3-ol] | 0.5 to 1 nM | 10 to 50 nM
12 | COC[C@]12Cc3cnn(-c4ccc(F)cc4)c3C=C1CCN(S(=O)(=O)c1ccnc(N3CC[C@H](O)C3)c1)C2 [Example 44, (S)-1-{4-[(R)-1-(4-Fluorophenyl)-4a-methoxymethyl-1,4,4a,5,6,7,8-hexahydro-1,2,6-triaza-cyclopenta[b]naphthalene-6-sulfonyl]-pyridin-2-yl}-pyrrolidin-3-ol] | > 1 nM | > 50 nM
13 | CCOC[C@]12Cc3cnn(-c4ccc(F)cc4)c3C=C1CCN(S(=O)(=O)c1ccc(N(C)C)nc1)C2 [Example 8, (R)-6-[[6-Dimethylamino-3-pyridinyl]sulfonyl]-4a-ethoxymethyl-1-(4-fluorophenyl)-1,4,7,8-tetrahydro-1,2,6-triazacyclopenta[b]naphthalene] | < 0.5 nM | < 10 nM
14 | O=C(OCC1CCC1)[C@]12Cc3cnn(-c4ccc(F)cc4)c3C=C1CCN(S(=O)(=O)c1ccc(N3CCOCC3)nc1)C2 [Example 52, (R)-1-(4-Fluorophenyl)-6-(6-morpholin-4-yl-pyridine-3-sulfonyl]-1,4,5,6,7,8-hexahydro-1,2,6-triaza-cyclopenta[b]naphthalene-4a-carboxylic acid cyclobutylmethyl ester] | 0.5 to 1 nM | < 10 nM
15 | COCCOC[C@]12Cc3cnn(-c4ccc(F)cc4)c3C=C1CCN(S(=O)(=O)c1ccc(N3CCOCC3)nc1)C2 [Example 64, (R)-1-(4-Fluoro-phenyl)-4a-(2-methoxy-ethoxymethyl)-6-(6-morpholin-4-yl-pyridine-3-sulfonyl)-4,4a,5,6,7,8-hexahydro-1H-1,2,6-traza-cyclopenta[b]naphthalene] | 0.5 to 1 nM | < 10 nM
16 | O=S(=O)(c1ccc(N2CCOCC2)nc1)N1CCC2=Cc3c(cnn3-c3ccc(F)cc3)C[C@]2(COCC2CC2)C1 [Example 32, (R)-4a-Cyclopropylmethoxymethyl-1-(4-fluorophenyl)-6-(6-morpholin-4-yl-pyridine-3-sulfonyl)-4,4a,5,6,7,8-hexahydro-1H-1,2,6-triaza-cyclopenta[b]naphthalene] | 0.5 to 1 nM | < 10 nM
17 | COC[C@]12Cc3cnn(-c4ccc(F)cc4)c3C=C1CCN(S(=O)(=O)c1ccc(N3CC[C@H](O)C3)nc1)C2 [Example 22, (S)-1-{5-[(R)-1-(4-Fluorophenyl)-4a-methoxymethyl-1,4,4a,5,6,7,8-hexahydro-1,2,6-triaza-cyclopenta[b]naphthalene-6-sulfonyl]-pyridin-2-yl}-pyrrolidin-3-ol] | > 1 nM | > 50 nM
